Assays:
[1] = system: Hepatitis B virus; assay: Antiviral activity against Hepatitis B virus infected in human HepG2(2.2.15) cells assessed as reduction in viral DNA replication; assay type: functional, organism-based
[2] = system: Hepatitis B virus; assay: Antiviral activity against Hepatitis B virus infected in human HepG2(2.2.15) cells assessed as reduction in hepatitis B e-antigen release; assay type: functional, organism-based
[3] = system: Hepatitis B virus; assay: Antiviral activity against Hepatitis B virus infected in human HepG2(2.2.15) cells assessed as reduction in hepatitis B surface antigen release; assay type: functional, organism-based
[4] = Cytotoxicity against human HepG2(2.2.15) cells; assay type: cell-based
[5] = Selectivity index, ratio of CC50 for human HepG2(2.2.15) cells to IC50 for HBV by viral DNA replication detection assay; assay type: functional

Row | Structure (SMILES) | IC50 [1] [µM] | IC50 [2] [µM] | IC50 [3] [µM] | CC50 [4] [µM] | Ratio CC50/IC50 [5]
1 | CCOC(=O)CCCOC(=O)[C@@]1(C)CC[C@]2(C)CC[C@]3(C)C(=CC[C@@H]4[C@@]5(C)CC[C@H](O)C(C)(C)[C@@H]5CC[C@]43C)[C@@H]2C1 | > 292 | > 1170 | 638 | 530 | 
2 | CC1(C)[C@@H](O)CC[C@]2(C)[C@H]3C(=O)C=C4[C@@H]5C[C@@](C)(C(=O)OCc6ccc(I)cc6)CC[C@]5(C)CC[C@@]4(C)[C@]3(C)CC[C@@H]12 | 5.71 | > 986 | > 986 | > 986 | >172.6
3 | COc1cc(/C=C/C(=O)O[C@H]2CC[C@]3(C)[C@H]4CC=C5[C@@H]6C[C@@](C)(C(=O)OCc7ccc(Br)cc7F)CC[C@]6(C)CC[C@@]5(C)[C@]4(C)CC[C@H]3C2(C)C)cc(OC)c1OC | > 259 | > 1030 | > 1030 | 935 | 
4 | COC(=O)[C@@]1(C)CC[C@]2(C)CC[C@]3(C)C(=CC(=O)[C@@H]4[C@@]5(C)CC[C@H](O)C(C)(C)[C@@H]5CC[C@]43C)[C@@H]2C1 | > 444 | > 1740 | > 1740 | > 1740 | 
5 | CCOC(=O)CCCOC(=O)[C@@]1(C)CC[C@]2(C)CC[C@]3(C)C(=CC[C@@H]4[C@@]5(C)CC[C@H](OC(=O)c6cc(=O)c7ccccc7o6)C(C)(C)[C@@H]5CC[C@]43C)[C@@H]2C1 | > 294 | > 1180 | > 1180 | > 1180 | 
6 | CCCCCCOC(=O)[C@@]1(C)CC[C@]2(C)CC[C@]3(C)C(=CC(=O)[C@@H]4[C@@]5(C)CC[C@H](O)C(C)(C)[C@@H]5CC[C@]43C)[C@@H]2C1 | 66.2 | > 1700 | > 1700 | 175 | 2.6
7 | CC1(C)[C@@H](O)CC[C@]2(C)[C@H]3C(=O)C=C4[C@@H]5C[C@@](C)(C(=O)OCCO)CC[C@]5(C)CC[C@@]4(C)[C@]3(C)CC[C@@H]12 | 298 | > 1920 | 1010 | 380 | 1.3
8 | CC1(C)[C@@H](O)CC[C@]2(C)[C@H]3CC=C4[C@@H]5C[C@@](C)(C(=O)OCc6ccc(C(F)(F)F)cc6)CC[C@]5(C)CC[C@@]4(C)[C@]3(C)CC[C@@H]12 | > 375 | > 1500 | > 1500 | > 1500 | 
9 | CC1(C)[C@@H](O)CC[C@]2(C)[C@H]3C(=O)C=C4[C@@H]5C[C@@](C)(C(=O)OCc6ccccc6C#N)CC[C@]5(C)CC[C@@]4(C)[C@]3(C)CC[C@@H]12 | 195 | > 1540 | > 1540 | > 1540 | >7.9
10 | CC1(C)[C@@H](OC(=O)c2cc(=O)c3ccccc3o2)CC[C@]2(C)[C@H]3CC=C4[C@@H]5C[C@@](C)(C(=O)OCc6ccc(Br)cc6F)CC[C@]5(C)CC[C@@]4(C)[C@]3(C)CC[C@@H]12 | > 271 | > 1080 | > 1080 | > 1080 | 
11 | CC1(C)[C@@H](O)CC[C@]2(C)[C@H]3C(=O)C=C4[C@@H]5C[C@@](C)(C(=O)OCc6cc(F)cc(F)c6)CC[C@]5(C)CC[C@@]4(C)[C@]3(C)CC[C@@H]12 | > 307 | > 1230 | > 1230 | > 1230 | 
12 | CC1(C)[C@@H](OC(=O)c2cc(=O)c3ccccc3o2)CC[C@]2(C)[C@H]3CC=C4[C@@H]5C[C@@](C)(C(=O)OCc6ccc(C(F)(F)F)cc6)CC[C@]5(C)CC[C@@]4(C)[C@]3(C)CC[C@@H]12 | > 293 | > 1170 | > 1170 | > 1170 | 
13 | CCOC(=O)CCCOC(=O)[C@@]1(C)CC[C@]2(C)CC[C@]3(C)C(=CC[C@@H]4[C@@]5(C)CC[C@H](OC(=O)/C=C/c6cc(OC)c(OC)c(OC)c6)C(C)(C)[C@@H]5CC[C@]43C)[C@@H]2C1 | > 307 | > 1230 | > 1230 | > 1230 | 
14 | CC1(C)[C@@H](OC(=O)c2cc(=O)c3ccccc3o2)CC[C@]2(C)[C@H]3CC=C4[C@@H]5C[C@@](C)(C(=O)OCC(N)=O)CC[C@]5(C)CC[C@@]4(C)[C@]3(C)CC[C@@H]12 | > 236 | > 944 | > 944 | > 944 | 
15 | CC1(C)[C@@H](O)CC[C@]2(C)[C@H]3C(=O)C=C4[C@@H]5C[C@@](C)(C(=O)OCc6cc(C(F)(F)F)cc(C(F)(F)F)c6)CC[C@]5(C)CC[C@@]4(C)[C@]3(C)CC[C@@H]12 | > 426 | > 1700 | > 1700 | > 1700 | 
16 | CC1(C)[C@@H](O)CC[C@]2(C)[C@H]3CC=C4[C@@H]5C[C@@](C)(C(=O)OCc6ccc(Br)cc6F)CC[C@]5(C)CC[C@@]4(C)[C@]3(C)CC[C@@H]12 | > 382 | > 1530 | > 1530 | 1150 | 
17 | COc1cccc(/C=C/C(=O)O[C@H]2CC[C@]3(C)[C@H]4CC=C5[C@@H]6C[C@@](C)(C(=O)OCc7ccc(Br)cc7F)CC[C@]6(C)CC[C@@]5(C)[C@]4(C)CC[C@H]3C2(C)C)c1 | > 250 | > 1000 | > 1000 | > 1000 | 
18 | C=CCOC(=O)[C@@]1(C)CC[C@]2(C)CC[C@]3(C)C(=CC(=O)[C@@H]4[C@@]5(C)CC[C@H](O)C(C)(C)[C@@H]5CC[C@]43C)[C@@H]2C1 | > 578 | > 2310 | > 2310 | > 2310 | 
19 | CCCCOC(=O)[C@@]1(C)CC[C@]2(C)CC[C@]3(C)C(=CC(=O)[C@@H]4[C@@]5(C)CC[C@H](O)C(C)(C)[C@@H]5CC[C@]43C)[C@@H]2C1 | > 247 | > 986 | > 986 | > 986 | 
20 | COc1cc(/C=C/C(=O)O[C@H]2CC[C@]3(C)[C@H]4CC=C5[C@@H]6C[C@@](C)(C(=O)OCc7ccc(C(F)(F)F)cc7)CC[C@]6(C)CC[C@@]5(C)[C@]4(C)CC[C@H]3C2(C)C)cc(OC)c1OC | > 247 | > 987 | > 987 | > 987 | 
21 | COc1cccc(/C=C/C(=O)O[C@H]2CC[C@]3(C)[C@H]4CC=C5[C@@H]6C[C@@](C)(C(=O)OCc7ccc(C(F)(F)F)cc7)CC[C@]6(C)CC[C@@]5(C)[C@]4(C)CC[C@H]3C2(C)C)c1 | > 225 | > 899 | > 899 | > 899 | 
22 | CCCCCCCCOC(=O)[C@@]1(C)CC[C@]2(C)CC[C@]3(C)C(=CC(=O)[C@@H]4[C@@]5(C)CC[C@H](O)C(C)(C)[C@@H]5CC[C@]43C)[C@@H]2C1 | > 362 | > 1450 | > 1450 | > 1450 | 
23 | CCCCCCCCCCOC(=O)[C@@]1(C)CC[C@]2(C)CC[C@]3(C)C(=CC(=O)[C@@H]4[C@@]5(C)CC[C@H](O)C(C)(C)[C@@H]5CC[C@]43C)[C@@H]2C1 | > 257 | > 1030 | > 1030 | > 1030 | 
24 | CC1(C)[C@@H](O)CC[C@]2(C)[C@H]3C(=O)C=C4[C@@H]5C[C@@](C)(C(=O)OCC6CCOCC6)CC[C@]5(C)CC[C@@]4(C)[C@]3(C)CC[C@@H]12 | > 479 | > 1910 | > 1910 | > 1910 | 

Source: ChEMBL document CHEMBL2021793, “Synthesis, biological evaluation and structure-activity relationships of glycyrrhetinic acid derivatives as novel anti-hepatitis B virus agents” (Bioorg Med Chem Lett, 2012)
